How the values were obtained:
cytochrome P450 enzymes = test: In vitro metabolism studies; assay type: in vitro ADME
[1] = system: lung cancer cells with wild-type Rb; conditions: cited from earlier work
[2] = system: patients with solid tumors and lymphomas; conditions: cited from earlier work
MEXF 276L melanoma cells = conditions: cited from earlier work
[3] = Dose limiting toxicity and drug-related toxicities in dose-escalating clinical trial; assay type: in vivo, human; conditions: twice weekly for two out of three weeks (Days 1, 4, 8, 11; 21 day cycle)
Experimental: Eighteen patients were treated in accordance with this protocol.

clinical = test: clinical
Experimental: PK assessments included the following tests. […] The total number of PK samples collected was approximately 115 mL of whole blood (7-8 tablespoons). If a patient experienced a potentially drug-related SAE, additional PK samples were collected. Blood was drawn from the contralateral arm to the infusion site using an indwelling catheter to avoid multiple needle sticks. […] The blood tube was inverted several times and the tube placed in wet ice immediately pending separation of the plasma. If a catheter was used for blood collection, the fluid in the catheter was completely withdrawn prior to each sample collection and discarded. Plasma samples were kept on wet ice during collection and centrifugation. Plasma samples were split into two cryovials prior to freezing at −70° C.

[4] = system: patients with advanced solid tumors; conditions: cited from earlier work
leukemia cells = conditions: cited from earlier work
[5] = system: colon adenocarcinoma cells; conditions: cited from earlier work
plasma protein = test: Plasma protein binding, in vitro assays using human blood; assay type: in vitro ADME
[6] = system: SKBr3 breast cancer cells; conditions: cited from earlier work
[7] = system: diffuse GFP positive MM lesions; conditions: SCID/NOD mice; cited from earlier work
breast cancer cells = conditions: cited from earlier work
[8] = Stability of diluted drug product; assay type: physicochemical; conditions: drug product at a dilution of 1:7, room temperature
[9] = system: adult patients with solid tumors; conditions: cited from earlier work
NSCLC cells = conditions: cited from earlier work
[10] = Cohorts 1 & 2, 17-AAG 100 mg/m^2, Max
[11] = Cohorts 1 & 2, 17-AAG 100 mg/m^2, Mean
[12] = Cohorts 1 & 2, 17-AAG 100 mg/m^2, Median
[13] = Cohorts 1 & 2, 17-AAG 100 mg/m^2, Min
[14] = Cohorts 3 & 4, 17-AAG 150 mg/m^2, Max
[15] = Cohorts 3 & 4, 17-AAG 150 mg/m^2, Mean
[16] = Cohorts 3 & 4, 17-AAG 150 mg/m^2, Median
[17] = Cohorts 3 & 4, 17-AAG 150 mg/m^2, Min

For `C=CCNC1=C2C[C@@H](C)C[C@H](OC)[C@H](O)[C@@H](C)/C=C(\C)[C@H](OC(N)=O)[C@@H](OC)/C=C\C=C(/C)C(=O)NC(=CC1=O)C2=O` [17-AAG, 17-Allylamino-17-demethoxygeldanamycin], the “enzymes involved in metabolism” value (cytochrome P450 enzymes) is given as “implicate the involvement of cytochrome P450 enzymes”, the “effect of exposure on client proteins” value [1] is given as “degradation of cdk4, cdk6, and cyclin E” and the “levels of Hsp90 client proteins” value ([2]; during therapy) is given as “unchanged during therapy”. For the same compound, the objective tumor responses ([2]; to date) was “No objective tumor responses”, the MTD ([2]; weekly 17-AAG, 3 weeks out of a 4 week cycle) was 308 mg/m^2 and the “dose reached without significant toxicity” value ([2]; weekly dosing) was 112 mg/m^2. The “effect of exposure on client proteins” value (MEXF 276L melanoma cells) was “depletion of Hsp90 and down-regulation of Raf-1 and erbB2”, the “17-AAG dose employed without reaching dose limiting toxicity (DLT) in any treated patient” value [3] was 275 mg/m^2 and the AUCext (clinical; [10]) was 10.80%. The AUCextra (clinical; [10]) was 608.6 ng·h/mL, the AUClast (clinical; [10]) was 7,248.8 ng/mL * h and the AUCtotal (clinical; [10]) was 7,857.4 ng/mL * h. The Cmax (clinical; [10]) was 2,620 ng/mL, the MRT (clinical; [10]) was 6.04 h and the Tmax (clinical; [10]) was 3 h. For the same compound, the t1/2 (clinical; [10]) was 5.16 h, the AUCext (clinical; [11]) was 6% and the AUCtotal (clinical; [11]) was 3,805 ng/mL * h. For the same compound, the Clearance (clinical; [11]) was 28.63 L/h/m^2, the Vss (clinical; [11]) was 93.88 L/m^2 and the Vz (clinical; [11]) was 104.58 L/m^2. For the same compound, the AUCext (clinical; [12]) was 6.10%, the AUCtotal (clinical; [12]) was 3,513.8 ng/mL * h and the Clearance (clinical; [12]) was 28.46 L/h/m^2. It also gave a Vss (clinical; [12]) of 79.65 L/m^2, a Vz (clinical; [12]) of 99.17 L/m^2 and an AUCext (clinical; [13]) of 2.54%. The AUCextra (clinical; [13]) was 87.9 ng·h/mL, the AUClast (clinical; [13]) was 2,231.7 ng/mL * h and the AUCtotal (clinical; [13]) was 2,380.5 ng/mL * h. For the same compound, the Cmax (clinical; [13]) was 755 ng/mL, the MRT (clinical; [13]) was 2.37 h and the Tmax (clinical; [13]) was 0.5 h. It also gave a t1/2 (clinical; [13]) of 1.72 h, an AUCext (clinical; [14]) of 10.5% and an AUCextra (clinical; [14]) of 595 ng·h/mL. For the same compound, the AUClast (clinical; [14]) was 17,650 ng/mL * h, the AUCtotal (clinical; [14]) was 18,246 ng/mL * h and the Cmax (clinical; [14]) was 9,540 ng/mL. It also gave an MRT (clinical; [14]) of 6.0 h, a Tmax (clinical; [14]) of 2.17 h and a t1/2 (clinical; [14]) of 5.7 h. The AUCext (clinical; [15]) was 5%, the AUCtotal (clinical; [15]) was 6,030 ng/mL * h and the Clearance (clinical; [15]) was 28.94 L/h/m^2. For the same compound, the Vss (clinical; [15]) was 80.89 L/m^2, the Vz (clinical; [15]) was 94.79 L/m^2 and the AUCext (clinical; [16]) was 3.8%. The AUCtotal (clinical; [16]) was 5,071 ng/mL * h, the Clearance (clinical; [16]) was 29.6 L/h/m^2 and the Vss (clinical; [16]) was 84.3 L/m^2. The Vz (clinical; [16]) was 93.7 L/m^2, the AUCext (clinical; [17]) was 0.9% and the AUCextra (clinical; [17]) was 54 ng·h/mL. For the same compound, the AUClast (clinical; [17]) was 3,152 ng/mL * h, the AUCtotal (clinical; [17]) was 3,294 ng/mL * h and the Cmax (clinical; [17]) was 1,830 ng/mL. For the same compound, the MRT (clinical; [17]) was 1.5 h, the Tmax (clinical; [17]) was 0.5 h and the t1/2 (clinical; [17]) was 1.6 h. The Total systemic clearance (clinical; cohorts 1-4 combined) was 28.83±8.51 L/h/m^2, the “distributive volume VSS” value (clinical; cohorts 1-4 combined) was 85.25±31.60 L/m^2 and the “distributive volume VZ” value (clinical; cohorts 1-4 combined) was 98.05±36.41 L/m^2. It also gave a Clearance (clinical; human, in vivo, 100 mg/m2) of 924 mL/min, a Vd (clinical; human, in vivo, 100 mg/m2, Vss, Cohorts 1 & 2, 17-AAG 100 mg/m^2, Median) of 159 L and a half-life (clinical; human, in vivo, 150 mg/m2) of 2.2 h. It also gave a Vd (clinical; human, in vivo, 150 mg/m2, Vss, Cohorts 3 & 4, 17-AAG 150 mg/m^2, Mean) of 143 L, a Vd (clinical; human, in vivo, 150 mg/m2, Vz, Cohorts 3 & 4, 17-AAG 150 mg/m^2, Median) of 172 L and a Vd (clinical; human, in vivo, distributive volume VZ, cohorts 1-4 combined) of 175 ± 68.2 L. For the same compound, the AUC (clinical; human, plasma, intravenous, 100 mg/m2, AUCextra, Cohorts 1 & 2, 17-AAG 100 mg/m^2, Mean) was 225 ng·h/mL, the AUC (clinical; human, plasma, intravenous, 100 mg/m2, AUCextra, Cohorts 1 & 2, 17-AAG 100 mg/m^2, Median) was 166 ng·h/mL and the AUC(0-t) (clinical; human, plasma, intravenous, 100 mg/m2, AUClast, Cohorts 1 & 2, 17-AAG 100 mg/m^2, Mean) was 3580 ng·h/mL. The AUC(0-t) (clinical; human, plasma, intravenous, 100 mg/m2, AUClast, Cohorts 1 & 2, 17-AAG 100 mg/m^2, Median) was 3350 ng·h/mL, the Clearance (clinical; human, plasma, intravenous, 100 mg/m2, Clearance, Cohorts 1 & 2, 17-AAG 100 mg/m^2, Mean) was 879 mL/min and the Cmax (clinical; human, plasma, intravenous, 100 mg/m2, Cmax, Cohorts 1 & 2, 17-AAG 100 mg/m^2, Mean) was 1790 ng/mL. The Cmax (clinical; human, plasma, intravenous, 100 mg/m2, Cmax, Cohorts 1 & 2, 17-AAG 100 mg/m^2, Median) was 1740 ng/mL, the MRT (clinical; human, plasma, intravenous, 100 mg/m2, MRT, Cohorts 1 & 2, 17-AAG 100 mg/m^2, Mean) was 3.32 h and the MRT (clinical; human, plasma, intravenous, 100 mg/m2, MRT, Cohorts 1 & 2, 17-AAG 100 mg/m^2, Median) was 2.89 h. It also gave a Tmax (clinical; human, plasma, intravenous, 100 mg/m2, Tmax, Cohorts 1 & 2, 17-AAG 100 mg/m^2, Mean) of 1 h, a Tmax (clinical; human, plasma, intravenous, 100 mg/m2, Tmax, Cohorts 1 & 2, 17-AAG 100 mg/m^2, Median) of 1 h and a Vd (clinical; human, plasma, intravenous, 100 mg/m2, Vss, Cohorts 1 & 2, 17-AAG 100 mg/m^2, Mean) of 174 L. It also gave a Vd (clinical; human, plasma, intravenous, 100 mg/m2, Vz, Cohorts 1 & 2, 17-AAG 100 mg/m^2, Mean) of 193 L, a Vd (clinical; human, plasma, intravenous, 100 mg/m2, Vz, Cohorts 1 & 2, 17-AAG 100 mg/m^2, Median) of 188 L and a half-life (clinical; human, plasma, intravenous, 100 mg/m2, t1/2, Cohorts 1 & 2, 17-AAG 100 mg/m^2, Mean) of 2.49 h. For the same compound, the half-life (clinical; human, plasma, intravenous, 100 mg/m2, t1/2, Cohorts 1 & 2, 17-AAG 100 mg/m^2, Median) was 2.29 h, the AUC (clinical; human, plasma, intravenous, 150 mg/m2, AUCextra, Cohorts 3 & 4, 17-AAG 150 mg/m^2, Mean) was 256 ng·h/mL and the AUC (clinical; human, plasma, intravenous, 150 mg/m2, AUCextra, Cohorts 3 & 4, 17-AAG 150 mg/m^2, Median) was 199 ng·h/mL. For the same compound, the AUC(0-t) (clinical; human, plasma, intravenous, 150 mg/m2, AUClast, Cohorts 3 & 4, 17-AAG 150 mg/m^2, Mean) was 5770 ng·h/mL, the AUC(0-t) (clinical; human, plasma, intravenous, 150 mg/m2, AUClast, Cohorts 3 & 4, 17-AAG 150 mg/m^2, Median) was 4870 ng·h/mL and the Clearance (clinical; human, plasma, intravenous, 150 mg/m2, Clearance, Cohorts 3 & 4, 17-AAG 150 mg/m^2, Mean) was 850 mL/min. For the same compound, the Clearance (clinical; human, plasma, intravenous, 150 mg/m2, Clearance, Cohorts 3 & 4, 17-AAG 150 mg/m^2, Median) was 843 mL/min, the Cmax (clinical; human, plasma, intravenous, 150 mg/m2, Cmax, Cohorts 3 & 4, 17-AAG 150 mg/m^2, Mean) was 3470 ng/mL and the Cmax (clinical; human, plasma, intravenous, 150 mg/m2, Cmax, Cohorts 3 & 4, 17-AAG 150 mg/m^2, Median) was 2740 ng/mL. The MRT (clinical; human, plasma, intravenous, 150 mg/m2, MRT, Cohorts 3 & 4, 17-AAG 150 mg/m^2, Mean) was 2.89 h, the MRT (clinical; human, plasma, intravenous, 150 mg/m2, MRT, Cohorts 3 & 4, 17-AAG 150 mg/m^2, Median) was 2.9 h and the Tmax (clinical; human, plasma, intravenous, 150 mg/m2, Tmax, Cohorts 3 & 4, 17-AAG 150 mg/m^2, Mean) was 1 h. For the same compound, the Tmax (clinical; human, plasma, intravenous, 150 mg/m2, Tmax, Cohorts 3 & 4, 17-AAG 150 mg/m^2, Median) was 0.97 h, the Vd (clinical; human, plasma, intravenous, 150 mg/m2, Vss, Cohorts 3 & 4, 17-AAG 150 mg/m^2, Median) was 151 L and the Vd (clinical; human, plasma, intravenous, 150 mg/m2, Vz, Cohorts 3 & 4, 17-AAG 150 mg/m^2, Mean) was 166 L. The half-life (clinical; human, plasma, intravenous, 150 mg/m2, t1/2, Cohorts 3 & 4, 17-AAG 150 mg/m^2, Mean) was 2.4 h, the half-life (clinical; human, plasma, intravenous, Terminal elimination half-life, cohorts 1-4 combined) was 2.43 ± 0.9 h and the Clearance (clinical; human, plasma, intravenous, Total systemic clearance, cohorts 1-4 combined) was 860 mL/min. The Vd (clinical; human, plasma, intravenous, distributive volume VSS, cohorts 1-4 combined) was 153 ± 62.3 L, the dose limiting toxicities ([4]; at the 80 mg/m^2 dose, daily x5) was “hepatitis, abdominal pain, nausea, dyspnea” and the Cmax ([4]; read-out: plasma Cmax, 80 mg/m^2 dose level) was 2700 nM. For the same compound, the “effect of exposure on client proteins” value (leukemia cells) was “down-regulation of intracellular Bcr-Abl and c-Raf proteins and reduction of Akt kinase activity”, the “effect of exposure on client proteins” value [5] was “depletion of Raf-1, c-Akt, and Erk1/2” and the “protein bound in plasma” value (plasma protein) was “approximately 95%”. The “effect of exposure on client proteins” value [6] was “depletion of erbB2 and destabilization of Raf-1 and mutant p53”, the survival analysis [7] was “significantly prolonged median overall survival” and the “effect of exposure on client proteins” value (breast cancer cells) was “depletion of steroid receptors”. The stability after dilution [8] was “up to 10 hours”, the “maximum tolerated dose (MTD) and recommended Phase 2 dose” value ([9]; daily for 5 days every 3 weeks) was 40 mg/m^2 and the dose limiting toxicity ([9]; daily x5 schedule) was “reversible hepatotoxicity”. For the same compound, the objective tumor responses ([9]; doses up to 110 mg/m^2) was “No objective tumor responses”, the VZ ([9]; in vivo) was 93 L/m^2 and the Clearance ([9]; patients treated at 56 mg/m^2) was 19.9 L/h/m^2. The “average AUC” value ([9]; patients treated at 56 mg/m^2) was 6,708 nM*h and the “effect of exposure on client proteins” value (NSCLC cells) was “depletion of erbB1 (EGFR) and erbB2 (p185) levels”.
